Test results taken from ChEMBL document CHEMBL1141581, “Cyclic guanidines as dual 5-HT5A/5-HT7 receptor ligands: structure-activity relationship elucidation” (Bioorg Med Chem Lett, 2008).

What was measured:
[1] = target: T1, 5-hydroxytryptamine receptor 5A (Homo sapiens, UniProt P47898); assay: Displacement of [3H]LSD from human recombinant 5HT5A receptor expressed in HEK293-EBNA cells; assay type: cell-based
[2] = target: T2, 5-hydroxytryptamine receptor 1A (Homo sapiens, UniProt P08908); assay: Displacement of [3H]8-OH-DPAT from human recombinant 5HT1A receptor expressed in HEK293-EBNA cells; assay type: cell-based
T2 sequence (P08908 whole entry): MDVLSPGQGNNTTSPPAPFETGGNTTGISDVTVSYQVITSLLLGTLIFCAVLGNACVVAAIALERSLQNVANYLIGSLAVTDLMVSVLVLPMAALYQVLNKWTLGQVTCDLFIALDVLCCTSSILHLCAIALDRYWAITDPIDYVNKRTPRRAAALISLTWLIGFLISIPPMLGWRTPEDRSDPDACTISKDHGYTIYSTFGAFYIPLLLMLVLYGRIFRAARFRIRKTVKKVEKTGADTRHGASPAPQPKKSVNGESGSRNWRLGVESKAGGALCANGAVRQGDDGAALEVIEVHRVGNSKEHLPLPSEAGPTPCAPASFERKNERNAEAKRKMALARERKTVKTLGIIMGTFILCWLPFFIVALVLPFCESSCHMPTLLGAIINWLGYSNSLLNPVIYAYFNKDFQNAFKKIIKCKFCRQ

[3] = target: 5-hydroxytryptamine receptor 1D (Homo sapiens, UniProt P28221); assay: Displacement of [3H]LSD from human recombinant 5HT1D receptor expressed in HEK293-EBNA cells; assay type: cell-based
Sequence of 5-hydroxytryptamine receptor 1D (P28221 whole entry): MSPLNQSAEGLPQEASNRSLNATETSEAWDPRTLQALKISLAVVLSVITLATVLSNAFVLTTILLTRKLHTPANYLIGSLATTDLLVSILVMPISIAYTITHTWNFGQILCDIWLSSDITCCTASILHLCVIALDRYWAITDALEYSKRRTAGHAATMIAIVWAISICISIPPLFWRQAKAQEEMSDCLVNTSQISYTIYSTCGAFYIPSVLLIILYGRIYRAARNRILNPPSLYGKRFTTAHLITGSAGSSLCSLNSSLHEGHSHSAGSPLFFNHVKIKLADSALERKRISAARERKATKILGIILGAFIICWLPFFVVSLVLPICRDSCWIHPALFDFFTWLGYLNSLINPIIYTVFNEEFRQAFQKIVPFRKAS

[4] = target: T3, 5-hydroxytryptamine receptor 2C (Homo sapiens, UniProt P28335); assay: Displacement of [3H]mesulergine from human recombinant 5HT2C receptor expressed in HEK293-EBNA cells; assay type: cell-based
T3 sequence (P28335 whole entry): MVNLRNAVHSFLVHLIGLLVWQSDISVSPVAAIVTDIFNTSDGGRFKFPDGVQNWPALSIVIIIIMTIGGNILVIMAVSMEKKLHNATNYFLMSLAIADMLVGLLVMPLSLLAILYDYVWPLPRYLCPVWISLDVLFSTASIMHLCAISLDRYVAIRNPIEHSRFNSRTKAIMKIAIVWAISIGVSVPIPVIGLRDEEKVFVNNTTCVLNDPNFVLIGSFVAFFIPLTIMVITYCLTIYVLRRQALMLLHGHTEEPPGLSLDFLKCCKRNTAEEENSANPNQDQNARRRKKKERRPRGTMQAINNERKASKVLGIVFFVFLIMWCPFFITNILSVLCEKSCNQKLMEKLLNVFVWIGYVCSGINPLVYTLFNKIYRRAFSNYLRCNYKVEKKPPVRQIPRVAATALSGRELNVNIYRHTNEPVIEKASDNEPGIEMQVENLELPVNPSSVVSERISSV

[5] = target: 5-hydroxytryptamine receptor 7 (Homo sapiens, UniProt P34969); assay: Displacement of [3H]LSD from human recombinant 5HT7 receptor expressed in HEK293-EBNA cells; assay type: cell-based
Sequence of 5-hydroxytryptamine receptor 7 (P34969 whole entry): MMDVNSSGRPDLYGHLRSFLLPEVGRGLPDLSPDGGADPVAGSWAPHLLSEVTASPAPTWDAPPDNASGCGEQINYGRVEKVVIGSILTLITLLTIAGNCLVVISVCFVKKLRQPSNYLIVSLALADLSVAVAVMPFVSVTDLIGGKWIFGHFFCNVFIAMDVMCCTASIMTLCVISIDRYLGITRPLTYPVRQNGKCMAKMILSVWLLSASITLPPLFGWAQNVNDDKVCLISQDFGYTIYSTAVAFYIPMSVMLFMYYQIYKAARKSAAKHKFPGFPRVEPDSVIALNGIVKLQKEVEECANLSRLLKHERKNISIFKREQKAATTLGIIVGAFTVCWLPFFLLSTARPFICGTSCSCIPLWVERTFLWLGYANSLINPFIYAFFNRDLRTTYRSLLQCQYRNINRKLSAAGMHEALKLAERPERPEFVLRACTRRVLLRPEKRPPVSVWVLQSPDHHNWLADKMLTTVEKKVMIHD

Homo sapiens [6] = species on record: Homo sapiens; assay: Selectivity for human recombinant 5HT5A receptor over human recombinant 5HT2A receptor
Homo sapiens [7] = species on record: Homo sapiens; assay: Selectivity for human recombinant 5HT5A receptor over human 5HT3 receptor
Homo sapiens [8] = species on record: Homo sapiens; assay: Selectivity for human recombinant 5HT5A receptor over human recombinant 5HT6 receptor
[9] = target: 5-hydroxytryptamine receptor 2A (Homo sapiens, UniProt P28223); assay: Displacement of [3H]ketanserin from human recombinant 5HT2A receptor expressed in HEK293-EBNA cells; assay type: cell-based
Sequence of 5-hydroxytryptamine receptor 2A (P28223 whole entry): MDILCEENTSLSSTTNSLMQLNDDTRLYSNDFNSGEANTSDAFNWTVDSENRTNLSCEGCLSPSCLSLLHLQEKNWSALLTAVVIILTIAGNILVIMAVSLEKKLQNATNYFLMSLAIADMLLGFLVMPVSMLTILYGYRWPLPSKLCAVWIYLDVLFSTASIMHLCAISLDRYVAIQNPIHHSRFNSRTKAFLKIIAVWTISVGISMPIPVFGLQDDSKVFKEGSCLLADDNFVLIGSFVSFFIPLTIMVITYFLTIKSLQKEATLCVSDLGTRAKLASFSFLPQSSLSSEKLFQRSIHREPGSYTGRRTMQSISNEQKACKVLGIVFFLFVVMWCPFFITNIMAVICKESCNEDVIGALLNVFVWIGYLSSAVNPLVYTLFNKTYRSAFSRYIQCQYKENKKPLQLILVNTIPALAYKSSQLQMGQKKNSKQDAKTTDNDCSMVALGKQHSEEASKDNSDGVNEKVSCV

[10] = target: T4, 5-hydroxytryptamine receptor 3A (Homo sapiens, UniProt P46098); assay: Binding affinity to human 5HT3 receptor
T4 sequence (P46098 whole entry): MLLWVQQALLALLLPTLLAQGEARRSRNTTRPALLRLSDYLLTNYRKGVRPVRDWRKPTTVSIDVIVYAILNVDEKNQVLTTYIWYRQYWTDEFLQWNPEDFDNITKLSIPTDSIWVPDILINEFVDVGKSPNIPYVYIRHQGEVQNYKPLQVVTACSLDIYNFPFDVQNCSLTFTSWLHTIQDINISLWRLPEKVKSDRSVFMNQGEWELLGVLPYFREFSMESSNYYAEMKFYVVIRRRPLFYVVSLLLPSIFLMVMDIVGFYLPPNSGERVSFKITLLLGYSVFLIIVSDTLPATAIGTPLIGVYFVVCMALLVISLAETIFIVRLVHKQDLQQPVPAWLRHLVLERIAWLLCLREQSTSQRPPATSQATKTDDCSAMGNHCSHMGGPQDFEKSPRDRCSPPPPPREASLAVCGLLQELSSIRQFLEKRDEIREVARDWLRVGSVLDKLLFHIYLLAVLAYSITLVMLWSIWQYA

[11] = target: 5-hydroxytryptamine receptor 6 (Homo sapiens, UniProt P50406); assay: Displacement of [3H]LSD from human recombinant 5HT6 receptor expressed in HEK293-EBNA cells; assay type: cell-based
Sequence of 5-hydroxytryptamine receptor 6 (P50406 whole entry): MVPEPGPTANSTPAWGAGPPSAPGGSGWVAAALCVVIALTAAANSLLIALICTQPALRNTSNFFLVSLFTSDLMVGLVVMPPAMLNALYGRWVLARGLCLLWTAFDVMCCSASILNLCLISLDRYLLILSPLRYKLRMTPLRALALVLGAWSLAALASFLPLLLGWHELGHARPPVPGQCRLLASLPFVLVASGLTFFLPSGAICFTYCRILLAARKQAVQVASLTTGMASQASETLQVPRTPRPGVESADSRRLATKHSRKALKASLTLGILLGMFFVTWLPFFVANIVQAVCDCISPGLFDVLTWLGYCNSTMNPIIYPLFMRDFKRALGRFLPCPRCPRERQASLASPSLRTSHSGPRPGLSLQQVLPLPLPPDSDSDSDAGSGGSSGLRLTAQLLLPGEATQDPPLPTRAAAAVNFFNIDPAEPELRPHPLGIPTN

Homo sapiens [12] = species on record: Homo sapiens; assay: Selectivity for human recombinant 5HT5A receptor over human recombinant 5HT1D receptor
[13] = target: T1, 5-hydroxytryptamine receptor 5A; assay: Antagonist activity at human recombinant 5HT5A receptor expressed in HEK293-EBNA cells by [35S]GTP-gamma-S binding assay; assay type: functional, cell-based
[14] = Protein binding in mouse plasma; assay type: ADME, cell-free; conditions: read-out: PPB (converted)
Histamine H1 receptor = Histamine H1 receptor (Homo sapiens, UniProt P35367); assay: Binding affinity to histamine H1 receptor
Sequence of Histamine H1 receptor (P35367 whole entry): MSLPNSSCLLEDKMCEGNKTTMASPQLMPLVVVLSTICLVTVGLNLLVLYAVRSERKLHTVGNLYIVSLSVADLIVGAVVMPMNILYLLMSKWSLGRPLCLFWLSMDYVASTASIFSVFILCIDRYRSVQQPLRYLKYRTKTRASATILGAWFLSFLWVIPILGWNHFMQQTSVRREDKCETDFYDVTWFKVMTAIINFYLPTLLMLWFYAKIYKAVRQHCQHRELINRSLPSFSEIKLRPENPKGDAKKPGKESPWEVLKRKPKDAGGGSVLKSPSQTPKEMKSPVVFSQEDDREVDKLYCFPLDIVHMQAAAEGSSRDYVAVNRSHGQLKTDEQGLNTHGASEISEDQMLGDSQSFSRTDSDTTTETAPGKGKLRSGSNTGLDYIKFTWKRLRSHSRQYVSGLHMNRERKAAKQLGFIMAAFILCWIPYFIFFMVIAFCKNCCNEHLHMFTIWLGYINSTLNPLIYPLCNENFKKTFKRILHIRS

[15] = Inhibition of adrenergic alpha-1 receptor at 1 uM
[16] = Inhibition of adrenergic alpha-2 receptor
[17] = target: T5, 5-hydroxytryptamine receptor 2B (Homo sapiens, UniProt P41595); assay: Inhibition of 5HT2B receptor
T5 sequence (P41595 whole entry): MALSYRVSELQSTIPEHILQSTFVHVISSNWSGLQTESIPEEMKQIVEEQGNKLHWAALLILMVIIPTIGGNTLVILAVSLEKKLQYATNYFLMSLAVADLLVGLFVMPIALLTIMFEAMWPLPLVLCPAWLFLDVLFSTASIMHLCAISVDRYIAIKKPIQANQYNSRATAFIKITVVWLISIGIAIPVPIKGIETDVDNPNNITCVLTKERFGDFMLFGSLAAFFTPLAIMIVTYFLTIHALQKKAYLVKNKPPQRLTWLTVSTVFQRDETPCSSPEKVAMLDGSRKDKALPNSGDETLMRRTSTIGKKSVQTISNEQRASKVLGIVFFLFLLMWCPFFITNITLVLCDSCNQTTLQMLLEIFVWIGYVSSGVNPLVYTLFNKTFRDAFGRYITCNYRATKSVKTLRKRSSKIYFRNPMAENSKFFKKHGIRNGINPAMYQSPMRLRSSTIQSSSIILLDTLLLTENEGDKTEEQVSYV

[18] = target: T5, 5-hydroxytryptamine receptor 2B; conditions: 1 uM
Description: Inhibition of 5HT2B receptor at 1 uM

T1 sequence (P47898 whole entry): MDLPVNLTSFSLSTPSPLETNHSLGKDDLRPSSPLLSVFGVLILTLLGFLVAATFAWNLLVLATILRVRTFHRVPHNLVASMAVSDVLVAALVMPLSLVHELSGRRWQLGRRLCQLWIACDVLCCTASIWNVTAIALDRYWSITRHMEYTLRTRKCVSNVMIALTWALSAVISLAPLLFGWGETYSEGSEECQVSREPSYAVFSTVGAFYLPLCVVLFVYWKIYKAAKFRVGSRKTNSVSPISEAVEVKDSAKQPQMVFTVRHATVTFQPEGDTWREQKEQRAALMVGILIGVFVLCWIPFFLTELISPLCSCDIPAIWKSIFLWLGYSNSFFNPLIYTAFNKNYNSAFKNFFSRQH

SMILES | Ki [1] [nM] | Ki [2] [nM] | Ki [3] [nM] | Ki [4] [nM] | Ki [5] [nM] | also measured
COc1cccc2c1N=C(N)NC2C (stereo not given) | – | 32 | 446 | 556 | 8.2 | Ratio Ki (Homo sapiens [6]): > 30; Ratio Ki (Homo sapiens [7]): > 30; Ratio Ki (Homo sapiens [8]): > 30
CC1(C)NC(N)=Nc2ccccc21 | 1170 | – | – | – | – | –
CN(C)C1=Nc2ccccc2CN1 | 2800 | – | – | – | – | –
NC1=Nc2c(F)cccc2CN1 | 1990 | – | – | – | – | –
COc1cc(Cl)c(C)c2c1N=C(N)NC2C (stereo not given) | – | 105 | 143 | 19 | 2.5 | Ratio Ki (Homo sapiens [6]): > 30; Ratio Ki (Homo sapiens [7]): > 30; Ratio Ki (Homo sapiens [8]): > 30
CC(C)Oc1cccc2c1N=C(N)NC2C (stereo not given) | – | 265 | 70 | 488 | 1 | Ratio Ki (Homo sapiens [12]): 7; Ratio Ki (Homo sapiens [6]): > 30; Ratio Ki (Homo sapiens [7]): > 30; Ratio Ki (Homo sapiens [8]): > 30
CNC1=Nc2ccc(Cl)c(Cl)c2C(C)N1 (stereo not given) | – | 246 | 454 | 94 | 13.2 | Ratio Ki (Homo sapiens [6]): > 30; Ratio Ki (Homo sapiens [7]): > 30; Ratio Ki (Homo sapiens [8]): > 30
CN1Cc2ccccc2N=C1N | > 10000 | – | – | – | – | –
CNC1=Nc2cccc(Cl)c2C(C)N1 (stereo not given) | – | 389 | 1460 | 235 | 15.3 | Ratio Ki (Homo sapiens [6]): > 30; Ratio Ki (Homo sapiens [7]): > 30; Ratio Ki (Homo sapiens [8]): > 30; Kb [13]: 7.41 nM
COc1ccc2c(c1)N=C(N)NC2 | 1380 | – | – | – | – | –
NC1=Nc2cccc(Cl)c2CN1 [listing 2 of 2 here] | – | – | – | – | – | Ki ([1]; hek293-ebna): 99 nM
CNC1=Nc2c(OC(C)C)cccc2C(C)N1 (stereo not given) | – | 669 | 160 | 970 | 2.4 | Ratio Ki (Homo sapiens [12]): 7; Ratio Ki (Homo sapiens [6]): > 30; Ratio Ki (Homo sapiens [7]): > 30; Ratio Ki (Homo sapiens [8]): > 30
CNC1=Nc2ccccc2CN1 | 1790 | – | – | – | – | –
CC1NC(N)=Nc2cccc(Cl)c21 (stereo not given) | – | 192 | 1270 | 152 | 15.9 | fraction unbound [14]: 0.16; Kb [13]: 3.02 nM; Ki (Histamine H1 receptor): 1100 nM; inhibition [15]: > 60%; IC50 [16]: > 400 nM; IC50 [17]: > 400 nM; inhibition [18]: > 60%
CC1NC(N)=Nc2ccc(Cl)c(Cl)c21 (stereo not given) | – | 181 | 260 | 26 | 8.7 | Ratio Ki (Homo sapiens [6]): > 30; Ratio Ki (Homo sapiens [7]): > 30; Ratio Ki (Homo sapiens [8]): > 30; Ki (Histamine H1 receptor): 8 nM

The next lines start with results.

Ki [1] [nM] | Ki [2] [nM] | Ki [3] [nM] | Ki [4] [nM] | Ki [5] [nM] | SMILES | also measured
22.9 | 339 | 1160 | 74 | 12.4 | COc1c(Cl)ccc2c1C(C)NC(N)=N2 (stereo not given) | –
97 | – | – | – | – | COc1cccc2c1N=C(N)NC2 | –
6.5 | 91 | 966 | 74 | 2.4 | CC1NC(N)=Nc2c(Cl)ccc(Cl)c21 (stereo not given) | Ratio Ki (Homo sapiens [6]): > 30; Ratio Ki (Homo sapiens [7]): > 30; Ratio Ki (Homo sapiens [8]): > 30
99 | 1700 | 3590 | 658 | 793 | NC1=Nc2cccc(Cl)c2CN1 [listing 1 of 2 here] | Ki [9]: 1160 nM; Ki [10]: 1050 nM; Ki [11]: > 10000 nM
38 | – | – | – | – | CC1NC(N)=Nc2ccccc21 (stereo not given) | –
274 | – | – | – | – | Cc1ccc2c(c1)N=C(N)NC2 | –
26.5 | 765 | 1270 | 155 | 73 | CCC1NC(N)=Nc2ccc(Cl)c(Cl)c21 (stereo not given) | –
84.4 | 1080 | > 10000 | 380 | 97.4 | CCC1NC(N)=Nc2cccc(Cl)c21 (stereo not given) | –
807 | – | – | – | – | NC1=Nc2ccc(Cl)cc2CN1 | –
647 | – | – | – | – | NC1=Nc2cc(F)ccc2CN1 | –
550 | – | – | – | – | NC1=Nc2cccc(F)c2CN1 | –
658 | – | – | – | – | NC1=Nc2ccccc2CN1 | –
347 | – | – | – | – | NC1=Nc2cc(Cl)ccc2CN1 | –
892 | – | – | – | – | NC1=Nc2c(Cl)cccc2CN1 | –
43 | 1080 | 1260 | 208 | 294 | NC1=Nc2ccc(Cl)c(Cl)c2CN1 | Ki [9]: 434 nM; Ki [10]: 172 nM; Ki [11]: 1160 nM
145 | – | – | – | – | Cc1cccc2c1CNC(N)=N2 | –
805 | – | – | – | – | CCCC1NC(N)=Nc2ccccc21 (stereo not given) | –
24 | – | – | – | – | CCC1NC(N)=Nc2ccccc21 (stereo not given) | –
463 | – | – | – | – | Cc1cccc2c1N=C(N)NC2 | –
911 | – | – | – | – | NC1=Nc2ccc(F)cc2CN1 | –
882 | – | – | – | – | Cc1ccc2c(c1)CNC(N)=N2 | –
